Tested on: CLIP^+ B cells in human PBMC
Assay: Peptide replacement of CLIP on R848-activated human PBMC B cells
Format: cell-based
Conditions: PBMC of two donors cultured with R848 for 48 hours with peptide
Protocol: FIG. 13 depicts TLR activation results in ectopic CLIP expression on human B cells from peripheral blood mononuclear cells (PBMC) cultures. FIG. 13a: human PBMC from five donors were cultured for 24 hours with toll ligands (CpG-ODN, LPS, Pam3Cys, and Poly I:C) and were stained with a pan anti-HLA-DR-FITC antibody (values of isotype controls were subtracted from the specific stains, ΔMFI). FIG. 13b: cells were stained using anti-human CLIP-FITC versus CD19-PE (values of isotype controls were subtracted from the specific stains, ΔMFI). For FIGS. 13a & 13b: nil vs. CpG p=0.06821; nil vs. LPS p=0.0390; nil vs. PAM p=0.0124. FIG. 13c: cells were stained for CLIP-FITC versus CD19-PE as described for FIG. 13b. The data represent the percent of total PBMC that are CLIP+ B cells subsequent to treatment. For FIG. 13c: nil vs. CpG p=0.0058; nil vs. LPS p=0.0254. […]
PBMC were prepared from a total of seven adult normal donors, five for examining the effects of TLR binding on the percentage of ectopic CLIP^+ B cells and changes in mean fluorescence intensity of the CLIP staining resulting from TLR stimulation with CpG-ODN, LPS, Pam-3-Cys, and Poly I:C. […] Cells were analyzed using either a BD FacsCalibur, for the five samples, or a Coulter FC500 for the two tissue typed samples. […]

Q: FRIMAVLAS was tested. Which “percentage of CLIP^+ B cells and level of CLIP per B cell” value did it give?
A: Its value is “reduced the percentage of CLIP^+ B cells and the level of CLIP per B cell to pre-treatment levels”.
